In PMC6804243, “Small-Molecule Inhibition of UBE2T/FANCL-Mediated Ubiquitylation in the Fanconi Anemia Pathway” (ACS Chemical Biology, 2019):
“Also recorded” adds a separate entry of the source.

Key:
[1] = system: T1, UBE2T / GST-FANCLRING; assay: Gel-based ubiquitylation assay, E2 = UBE2T, E3 = GST-FANCLRING; type: biochemical; details: compound 100 μM, 30 min at 37 °C, Western blot
T1 construct: the RING domain (residues 275–375) of the E3 FANCL (FANCLRING); His6 (N); made in house; host or cells: E. coli Rosetta (DE3)

[2] = system: T2, UBE2D1 / GST-FANCLRING; assay: Gel-based ubiquitylation assay, E2 = UBE2D1, E3 = GST-FANCLRING; type: biochemical; details: 30 min at 37 °C, Western blot
T2 construct: the RING domain (residues 275–375) of the E3 FANCL (FANCLRING); His6 (N); made in house; host or cells: E. coli Rosetta (DE3)
Description: (§1) Figure 2 Gel-based ubiquitylation assays with confirmed HTRF hits. […] Western blots (WB) probed for GST or biotin as labeled. Reactions contained 20 nM His6-UBE1, 50 nM E2, 250 nM GST-E3, 500 nM biotinylated ubiquitin: (a) E2 = UBE2T, E3 = GST-FANCLRING, 30 min of reaction at 37 °C; (b) E2 = UBE2D1, E3 = GST-FANCLRING, 30 min of reaction at 37 °C; and (c) E2 = UBE2D1, E3 = GST-RNF8, 10 min of reaction at 37 °C.
In order to explore the selectivity of CU1, CU2, CU9, CU10, and CU12, we conducted a counter-screen against other E2 and E3 combinations. Since members of the UBE2D family of E2s are known to ubiquitylate multiple substrates in vitro,[13] a ubiquitylation assay featuring UBE2D1 and GST-FANCLRING was performed. With UBE2D1, multiple ubiquitylated GST-FANCLRING species could be observed (Figure 2b).
(§2) Purified protein was concentrated using a Vivaspin-6 concentrator with a 10 kDa MW cut-off (Vivascience) and flash-frozen in small aliquots for storage at […]
(§3) Cy5 labelling of ubiquitin. To a 5 mg/mL solution of recombinant human ubiquitin (Boston Biochem) in 0.1 M NaHCO3 pH 8.3, was added a 4-fold molar excess of Cyanine5 NHS ester (Lumiprobe). The reaction was incubated at 23 °C for 4 hours in the dark. The protein was separated from unreacted dye by passage through a PD-10 desalting column (GE Healthcare) equilibrated with PBS. Purified protein was concentrated using a Vivaspin-6 concentrator with a 3 kDa MW cut-off (Vivascience) and flash-frozen in small aliquots for storage […]
(§4) Homogeneous Time-Resolved Fluorescence (HTRF) Assay. GST-FANCLRING (200 nM) was incubated with anti-GST Tb (CisBio, #61GSTTL) (2.5 ng final) at room temperature for 30 minutes in assay buffer (50 mM Tris-HCl pH 8.0, 1 mM TCEP, 5 mM MgCl2, 0.005% Tween-20). Meanwhile, 10 μL of UBE2T in assay buffer (or assay buffer alone for no enzyme controls) was incubated in a white 384-well plate (Corning) with 20 nL DMSO or compound in DMSO. After 30 minutes, the GST-RINGRING solution was added to an equal volume solution containing His-UBE1 (Boston Biochem) (16 nM), Cy5-ubiquitin (400 nM), ATP (0.8 mM) in assay buffer. 10 μL of this solution was immediately added to each well of the 384 -well plate containing UBE2T or buffer. F inal concentrations: His -UBE1 (4 nM), UBE2T (6 nM), GST -RINGRING (50 nM), Cy5-ubiquitin (100 nM), ATP (0.2 mM), compound (10 or 20 μM) in 0.1 %
(§5) (v/v) DMSO. After a 10 minute incubation at 23 °C, 5 µL of a 50 mM EDTA solution were added to each well to stop the reaction. Signal was measured at λEx 340 nm and λEm 665 nm and 620 nm using a PHERAstar FS plate reader
(§6) (BMG Labtech). A ratio was calculated as [λEm(665)/λEm(620)] × 104 for each well and this was used to determine the percent inhibition for test compounds.
(§7) Gel-based ubiquitylation assays. Assays were carried out in a total volume of 10 µL containing 20 nM His6-UBE1 (Boston Biochem), 50 nM UBE2T, 250 nM GST-E3 and 500 nM biotinylated ubiquitin (Boston Biochem) in buffer (50 […]
(§8) Reaction mixtures were incubated for the indicated time at 37 °C and stopped by the addition of 2X reducing SDS -PAGE sample buffer, separated on NuPAGE Novex 4 –12% Bis/Tris gradient gels (Invitrogen) and visualized by Western blotting using the indicated antibodies (Table S3).
Cell culture. […]

[3] = system: T3, UBE2D1 / GST-RNF8; assay: Gel-based ubiquitylation assay, E2 = UBE2D1, E3 = GST-RNF8; type: biochemical; details: 10 min at 37 °C, Western blot
T3 construct: His6 (N); made in house; host or cells: E. coli Rosetta (DE3)
Description: as §1
A further ubiquitylation assay was performed with an alternative E3, RNF8, which also plays important roles in the DDR.[14] In contrast to GST-FANCLRING, long polyubiquitin chains were attached to GST-RNF8 by UBE2D1 (Figure 2c).
as §2, §3, §4, §5, §6, §7, §8
Cell culture. U2OS cells were cultured at 37 °C in a humidified atmosphere and 5% (v/v) CO2 in Dulbecco's Modified Eagle Medium (DMEM; Sigma-Aldrich) supplemented with 10% (v/v) fetal bovine serum (FBS), 100 units/ml of penicillin, […] of streptomycin and 292 μg/mL L-glutamine.
Cell extract preparation and immunoblotting. U2OS cells were lysed in buffer containing 50 mM Tris-HCl pH 7.5, 2% SDS, 10 mM NEM, cocktail protease inhibitor (Roche) and phosphatase inhibitor cocktail followed by sonication 100 µg of extracts were boiled for 5 mins at 95 °C in 5X loading buffer and loaded onto NuPAGE Novex 4–12% Bis/Tris gradient gels
(Invitrogen), or NuPAGE Novex 3-8% Tris/Acetate gradient gels (Invitrogen) for detection of mUb-FANCD2. After separation the gels were transferred to PVDF and the membranes were blocked with Tris-buffered saline containing 0.1% (v/v) Tween-20 (TBST) and 5% (v/v) bovine serum albumin (BSA) and […]

[4] = system: T4, UBE2T; assay: Gel-based ubiquitylation assay (UBE2T/GST-FANCLRING), blot probed for UBE2T; type: biochemical; details: compound 100 μM, Western blot probed for UBE2T
T4 construct: His6 (N); made in house; host or cells: E. coli Rosetta (DE3)

[5] = system: T5, UBE1; assay: Gel-based ubiquitylation assay (UBE2T/GST-FANCLRING), autoubiquitylation of UBE1; type: biochemical; details: compound 100 μM; Western blot probed for biotin
T5 construct: purchased Boston Biochem

[6] = system: U2OS cells; assay: Tolerance / cytotoxicity of compounds in U2OS cells; type: cell-based; details: compound at 500 μM, 8 h assay
Description: U2OS cells were treated with HU and the formation of mUb-FANCD2 in the presence of CU 1, CU2, and CU9 was evaluated relative to a DMSO control. Following a 1-h preincubation with the compounds, cells were treated with 2.5 mM of HU for 24 h. […] Accordingly, cells were treated with a higher concentration of compounds in further experiments.

Structure (SMILES) | ubiquitylation of GST-FANCLRING (mUb-GST-FANCLRING band) [1] | ubiquitylation of GST-FANCLRING [2] | ubiquitylation of GST-RNF8 and UBE2D1 [3] | ubiquitylation of UBE2T [4] | ubiquitylation of UBE2T ([4]; listed as 12) | autoubiquitylation of UBE1 [5] | tolerance by cells [6] | ubiquitylation of UBE2T ([4]; listed as 2) | ubiquitylation of UBE2T ([4]; listed as 9) | ubiquitylation of GST-FANCLRING (mUb-GST-FANCLRING band) ([1]; listed as CU 1) | ubiquitylation of GST-RNF8 and UBE2D1 ([3]; listed as CU 1)
NC(=O)[C@@H]1CCCN1C(=O)c1cc(-n2cccc2)ccc1Cl [CU12] | no ubiquitylation of FANCLRING was observed | essentially abolished the ubiquitylation of GST-FANCLRING | appeared to inhibit the ubiquitylation of all species in the assay | prevented the ubiquitylation of UBE2T | essentially completely inhibited | somewhat impaired the autoubiquitylation of UBE1 |  |  |  |  | 
CCN1CCN(c2cc(C)nc3nc(CN4CCCCC4C)nn23)CC1 (stereo not drawn) [CU2] | no ubiquitylation of FANCLRING was observed; also recorded: inhibit the ubiquitylation of GST-FANCLRING; also recorded: completely inhibited the ubiquitylation of GST-FANCLRING | essentially abolished the ubiquitylation of GST-FANCLRING | but not GST-RNF8; also recorded: no detectable effects on ubiquitylation of GST-RNF8 and UBE2D1 | did not affect ubiquitylation of either UBE2T or UBE1 |  | did not affect ubiquitylation of either UBE2T or UBE1 | tolerated | unaffected |  |  | 
Cc1nnc(N(C)CC2CCN(CC(C)O)CC2)c(C#N)c1C (stereo not drawn) [CU9] | no ubiquitylation of FANCLRING was observed; also recorded: inhibit the ubiquitylation of GST-FANCLRING; also recorded: completely inhibited the ubiquitylation of GST-FANCLRING | essentially abolished the ubiquitylation of GST-FANCLRING | but not GST-RNF8; also recorded: no detectable effects on ubiquitylation of GST-RNF8 and UBE2D1 | did not affect ubiquitylation of either UBE2T or UBE1 |  | did not affect ubiquitylation of either UBE2T or UBE1 | tolerated |  | unaffected |  | 
NCCN1C(=O)CC[C@H]2CN(Cc3cccc(-c4ccco4)c3)CC[C@H]21 [CU1] | no ubiquitylation of FANCLRING was observed; also recorded: inhibit the ubiquitylation of GST-FANCLRING | essentially abolished the ubiquitylation of GST-FANCLRING | but not GST-RNF8 | did not affect ubiquitylation of either UBE2T or UBE1; also recorded: unaffected |  | did not affect ubiquitylation of either UBE2T or UBE1 |  |  |  | completely inhibited the ubiquitylation of GST-FANCLRING | no detectable effects on ubiquitylation of GST-RNF8 and UBE2D1
